Source: patent US7045343B2, “Sterilization indicator test packs” (3M Innovative Properties Company, priority 1998, dated 2006)

Legend:
[1] = system: enzyme associated with Bacillus stearothermophilus spores; assay: Rapid enzyme fluorescence readout of dual rapid readout indicators after prevacuum steam sterilization; format: biochemical; settings: 4-pulse prevacuum steam 121° C.; for FLUORESCENCE - PERCENT POSITIVE 1 HR / FLUORESCENCE - PERCENT POSITIVE 2 HR / FLUORESCENCE - PERCENT POSITIVE 3 HR / FLUORESCENCE - PERCENT POSITIVE 4 HR / FLUORESCENCE - PERCENT POSITIVE 5 HR / FLUORESCENCE - PERCENT POSITIVE 6 HR: Example 2, 7–13 min
Method: (§1) The indicators prepared for the Examples were dual rapid readout indicators that provided both a rapid, enzyme-based efficacy test and a confirmatory spore outgrowth test. Spores coated on the carrier strip 16 served as the source of active enzyme whose activity was measured by the rapid enzyme test. These same spores were then incubated in the spore outgrowth portion of the test.
(§2) Bacillus stearothermophilus, commercially available as ATCC 7953 from American Type Culture Collection, Rockville, Md., was grown overnight (16 hours) at 58° C. in tryptic soy broth. This culture was used to inoculate the surface of agar plates consisting of 8 g/l nutrient broth, 4 g/l yeast extract, 0.1 g/l manganese chloride and 20 g/l agar at pH 7.2. Plates were incubated at 58° C. for 72 hours. Spores were scraped from the plates and suspended in sterile distilled water. The spores were separated from the vegetative debris by centrifuging the suspension at 7000 rpm and 4° C. for 20 minutes. The supernatant was poured off and the spores were resuspended in sterile distilled water. The cleaning procedure was repeated several times. After the final wash, the spores were suspended in sterile distilled water, at a concentration of approximately 1×10^8 spores per milliliter.
(§3) The spores were then treated with the chemicals identified in Tables 1–5. All chemicals tested were obtained from commercial sources. The spores were centrifuged at 6000 rpm for 10 minutes. The supernatant and coating chemical mixtures were heated at 60–80° C. for several minutes and vortexed to get the material into solution. The spores were then mixed into the sterilant-resistant chemical solution. The sterilant-resistant chemical solution was applied to 5×25 mm, 591 A paper strips (Schleicher & Schuell, Inc., Keene, N.H.) by pipetting 10–15 microliters to each strip for a final population of about 1×10^6 spores per strip. The strips were dried 16 hours at 37° C.
(§4) The treated spore strips were placed on the bottom of the outer container 12 of the indicator 10 and a barrier was inserted between the spore strip 16 and the inner container 18, which contained enzyme substrate. A […] ( 11/16 inch) disc of polypropylene blown microfiber material, with a weight of 200 g/m^2, commercially available as “THINSULATE™ 200-B brand Thermal Insulation” from 3M Company, St. Paul, Minn., was used as the barrier. The inner container 18 contained 0.67 ml nutrient medium, consisting of 17 g of a bacteriological peptone and a 0.17 g/l of L-alanine, as well as 0.1 g 4-methylumbelliferyl-alpha-D-glucoside, commercially available from Sigma Chemical Company, St. Louis, Mo., dissolved in 200 microliters of N,N-dimethylformamide, and 0.03 g bromocresol purple pH indicator dye, per liter of water. The pH of the enzyme substrate and nutrient medium solution was adjusted to 7.6 with 0.1N sodium hydroxide.
(§5) Sterilization indicators were made as described above with each of the chemicals and concentrations described in Table 1. Control indicators were made using untreated spores. The indicators were placed in metal instrument trays and exposed at 121° C. in a Getinge Steam Sterilizer (Getinge International, Inc., 1100 Towbin Ave., Lakewood, N.J.) using a 4-pulse prevacuum cycle at 121° C. with a vacuum level of 0.075–0.085 bar and a steam pulse to 1.00 bar for each pulse. Indicators were exposed in the sterilizer for between 7 and 13 minutes. This cycle is depicted in the time-pressure diagram in FIG. 5. After exposure the inner containers containing the enzyme substrate and nutrient medium were crushed and the indicators were incubated at 60° C. The indicators were examined for fluorescence using a 3M™ ATTEST™ Model 190 Rapid Autoreader, commercially available from 3M Company, St. Paul, Minn. Additionally, spore growth, as indicated by a color change from purple to yellow, was determined visually after 168 hours of incubation at 60° C. […]

[2] = system: Bacillus stearothermophilus spores; assay: Spore outgrowth (color change) of indicators after prevacuum steam sterilization; format: cell-based; settings: Example 2, 4-pulse prevacuum steam 121° C., 7–13 min
Method: as §1, §2, §3, §4, §5

accuracy of sterilization indicators compared to indicators made with untreated spores [1] | FLUORESCENCE - PERCENT POSITIVE 1 HR ([1]; 5 mg/ml coating) [%] | FLUORESCENCE - PERCENT POSITIVE 2 HR ([1]; 5 mg/ml coating) [%] | FLUORESCENCE - PERCENT POSITIVE 3 HR ([1]; 5 mg/ml coating) [%] | FLUORESCENCE - PERCENT POSITIVE 4 HR ([1]; 5 mg/ml coating) [%] | FLUORESCENCE - PERCENT POSITIVE 5 HR ([1]; 5 mg/ml coating) [%] | FLUORESCENCE - PERCENT POSITIVE 6 HR ([1]; 5 mg/ml coating) [%] | FLUORESCENCE - PERCENT POSITIVE 1 HR ([1]; 10 mg/ml coating) [%] | FLUORESCENCE - PERCENT POSITIVE 2 HR ([1]; 10 mg/ml coating) [%] | FLUORESCENCE - PERCENT POSITIVE 3 HR ([1]; 10 mg/ml coating) [%] | FLUORESCENCE - PERCENT POSITIVE 4 HR ([1]; 10 mg/ml coating) [%] | FLUORESCENCE - PERCENT POSITIVE 5 HR ([1]; 10 mg/ml coating) [%] | FLUORESCENCE - PERCENT POSITIVE 6 HR ([1]; 10 mg/ml coating) [%] | FLUORESCENCE - PERCENT POSITIVE 1 HR ([1]; 20 mg/ml coating) [%] | FLUORESCENCE - PERCENT POSITIVE 2 HR ([1]; 20 mg/ml coating) [%] | FLUORESCENCE - PERCENT POSITIVE 3 HR ([1]; 20 mg/ml coating) [%] | FLUORESCENCE - PERCENT POSITIVE 4 HR ([1]; 20 mg/ml coating) [%] | FLUORESCENCE - PERCENT POSITIVE 5 HR ([1]; 20 mg/ml coating) [%] | FLUORESCENCE - PERCENT POSITIVE 6 HR ([1]; 20 mg/ml coating) [%] | FLUORESCENCE - PERCENT POSITIVE 1 HR ([1]; 40 mg/ml coating) [%] | SMILES | also measured
did not improve the accuracy | 0 | 0 | 0 | 10.0 | 30.0 | 40.0 | 0 | 6.7 | 20.0 | 26.7 | 53.3 | 60.0 | 0 | 0 | 8.3 | 29.2 | 41.7 | 45.8 | 0 | OCC(O)COCC(O)COCC(O)CO (stereo not drawn) [Triglycerol] | FLUORESCENCE - PERCENT POSITIVE 2 HR ([1]; 40 mg/ml coating): 0%; FLUORESCENCE - PERCENT POSITIVE 3 HR ([1]; 40 mg/ml coating): 29.6%; FLUORESCENCE - PERCENT POSITIVE 4 HR ([1]; 40 mg/ml coating): 48.1%; FLUORESCENCE - PERCENT POSITIVE 5 HR ([1]; 40 mg/ml coating): 51.9%; FLUORESCENCE - PERCENT POSITIVE 6 HR ([1]; 40 mg/ml coating): 63.0%; FLUORESCENCE - PERCENT POSITIVE 1 HR ([1]; 80 mg/ml coating): 0%; FLUORESCENCE - PERCENT POSITIVE 2 HR ([1]; 80 mg/ml coating): 3.2%; FLUORESCENCE - PERCENT POSITIVE 3 HR ([1]; 80 mg/ml coating): 38.7%; FLUORESCENCE - PERCENT POSITIVE 4 HR ([1]; 80 mg/ml coating): 51.6%; FLUORESCENCE - PERCENT POSITIVE 5 HR ([1]; 80 mg/ml coating): 58.1%; FLUORESCENCE - PERCENT POSITIVE 6 HR ([1]; 80 mg/ml coating): 64.5%; NO. GROWTH POSITIVE 168 HR ([2]; 5 mg/ml coating): 10; NO. GROWTH POSITIVE 168 HR ([2]; 10 mg/ml coating): 15; NO. GROWTH POSITIVE 168 HR ([2]; 20 mg/ml coating): 24; NO. GROWTH POSITIVE 168 HR ([2]; 40 mg/ml coating): 27; NO. GROWTH POSITIVE 168 HR ([2]; 80 mg/ml coating): 31
did not improve the accuracy | 0 | 0 | 0 | 9.1 | 45.5 | 63.6 | 0 | 0 | 5.0 | 15.0 | 35.0 | 50.0 | 0 | 0 | 11.1 | 38.9 | 50.0 | 61.1 | 0 | OCC(O)COCC(O)COCC(O)COCC(O)COCC(O)COCC(O)CO (stereo not drawn) [Hexaglycerol] | FLUORESCENCE - PERCENT POSITIVE 2 HR ([1]; 40 mg/ml coating): 0%; FLUORESCENCE - PERCENT POSITIVE 3 HR ([1]; 40 mg/ml coating): 26.9%; FLUORESCENCE - PERCENT POSITIVE 4 HR ([1]; 40 mg/ml coating): 46.2%; FLUORESCENCE - PERCENT POSITIVE 5 HR ([1]; 40 mg/ml coating): 53.8%; FLUORESCENCE - PERCENT POSITIVE 6 HR ([1]; 40 mg/ml coating): 61.5%; FLUORESCENCE - PERCENT POSITIVE 1 HR ([1]; 80 mg/ml coating): 0%; FLUORESCENCE - PERCENT POSITIVE 2 HR ([1]; 80 mg/ml coating): 0%; FLUORESCENCE - PERCENT POSITIVE 3 HR ([1]; 80 mg/ml coating): 37.5%; FLUORESCENCE - PERCENT POSITIVE 4 HR ([1]; 80 mg/ml coating): 58.3%; FLUORESCENCE - PERCENT POSITIVE 5 HR ([1]; 80 mg/ml coating): 70.8%; FLUORESCENCE - PERCENT POSITIVE 6 HR ([1]; 80 mg/ml coating): 70.8%; NO. GROWTH POSITIVE 168 HR ([2]; 5 mg/ml coating): 11; NO. GROWTH POSITIVE 168 HR ([2]; 10 mg/ml coating): 20; NO. GROWTH POSITIVE 168 HR ([2]; 20 mg/ml coating): 18; NO. GROWTH POSITIVE 168 HR ([2]; 40 mg/ml coating): 26; NO. GROWTH POSITIVE 168 HR ([2]; 80 mg/ml coating): 24
